Assays:
CYP1A2 = molecular target: T1, CYP1A2 (Homo sapiens, UniProt P05177); assay: Inhibition of human recombinant CYP1A2 using 7-ethoxyresorufin as substrate assessed as percent enzyme activity at 1 uM after 30 mins in presence of NADPH by EROD assay relative to control; type: ADME; set-up: scale not given: the % may be the effect or the level left; details: recombinant CYP1A2, probe 7-ethoxyresorufin, read-out: Activity
T1 sequence (P05177 whole entry): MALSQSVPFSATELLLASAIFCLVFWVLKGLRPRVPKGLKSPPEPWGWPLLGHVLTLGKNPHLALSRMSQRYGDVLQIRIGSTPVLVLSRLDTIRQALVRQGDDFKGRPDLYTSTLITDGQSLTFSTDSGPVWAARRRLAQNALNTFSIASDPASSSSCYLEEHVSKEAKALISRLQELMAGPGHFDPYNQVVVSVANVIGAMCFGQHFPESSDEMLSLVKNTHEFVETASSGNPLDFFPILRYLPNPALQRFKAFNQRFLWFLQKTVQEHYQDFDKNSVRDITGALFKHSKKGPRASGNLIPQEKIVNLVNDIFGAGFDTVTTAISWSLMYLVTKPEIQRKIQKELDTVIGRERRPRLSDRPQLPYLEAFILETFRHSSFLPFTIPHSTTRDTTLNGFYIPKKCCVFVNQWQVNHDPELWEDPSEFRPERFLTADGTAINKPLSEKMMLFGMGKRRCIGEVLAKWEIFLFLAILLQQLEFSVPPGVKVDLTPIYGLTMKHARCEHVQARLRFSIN

Cytochrome P450 1B1 [1] = molecular target: T2, Cytochrome P450 1B1 (Homo sapiens, UniProt Q16678); assay: Inhibition of human recombinant CYP1B1 using 7-ethoxyresorufin as substrate assessed as percent enzyme activity at 1 uM after 30 mins in presence of NADPH by EROD assay relative to control; set-up: scale not given: the % may be the effect or the level left; details: read-out: Activity
T2 sequence (Q16678 whole entry): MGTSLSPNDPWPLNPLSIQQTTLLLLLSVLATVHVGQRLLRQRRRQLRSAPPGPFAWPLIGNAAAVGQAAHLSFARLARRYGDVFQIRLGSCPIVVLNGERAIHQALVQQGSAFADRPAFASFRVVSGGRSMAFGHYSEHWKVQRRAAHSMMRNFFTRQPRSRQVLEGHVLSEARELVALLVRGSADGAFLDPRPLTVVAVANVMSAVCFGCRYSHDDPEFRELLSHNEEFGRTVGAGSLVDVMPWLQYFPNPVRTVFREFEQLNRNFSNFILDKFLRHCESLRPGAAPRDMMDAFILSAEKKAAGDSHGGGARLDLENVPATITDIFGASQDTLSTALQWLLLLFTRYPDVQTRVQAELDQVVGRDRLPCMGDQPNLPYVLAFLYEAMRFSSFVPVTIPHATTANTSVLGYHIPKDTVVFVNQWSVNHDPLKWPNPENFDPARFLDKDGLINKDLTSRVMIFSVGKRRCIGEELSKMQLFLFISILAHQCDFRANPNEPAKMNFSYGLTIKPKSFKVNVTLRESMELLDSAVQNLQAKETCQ

CYP1A1 = molecular target: T3, CYP1A1 (Homo sapiens, UniProt P04798); assay: Inhibition of human recombinant CYP1A1 using 7-ethoxyresorufin as substrate assessed as percent enzyme activity at 1 uM after 15 mins in presence of NADPH by EROD assay relative to control; type: ADME; set-up: scale not given: the % may be the effect or the level left; details: recombinant CYP1A1, probe 7-ethoxyresorufin, read-out: Activity
T3 sequence (P04798 whole entry): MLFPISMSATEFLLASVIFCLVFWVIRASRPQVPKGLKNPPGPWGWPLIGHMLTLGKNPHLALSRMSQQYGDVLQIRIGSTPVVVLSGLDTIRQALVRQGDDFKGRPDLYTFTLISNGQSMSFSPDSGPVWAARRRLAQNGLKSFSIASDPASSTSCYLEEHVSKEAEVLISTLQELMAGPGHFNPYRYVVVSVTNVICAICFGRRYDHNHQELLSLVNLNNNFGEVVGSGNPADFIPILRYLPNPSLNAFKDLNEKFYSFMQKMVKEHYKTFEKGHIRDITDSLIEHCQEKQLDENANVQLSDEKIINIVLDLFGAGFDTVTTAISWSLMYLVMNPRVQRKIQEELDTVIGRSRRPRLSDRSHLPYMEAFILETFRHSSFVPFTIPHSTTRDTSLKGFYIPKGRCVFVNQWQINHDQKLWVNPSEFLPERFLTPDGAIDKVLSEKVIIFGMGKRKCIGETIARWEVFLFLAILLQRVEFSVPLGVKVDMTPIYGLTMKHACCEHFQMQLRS

Homo sapiens = species: Homo sapiens; assay: Selectivity ratio of IC50 for human recombinant CYP1A1 to IC50 for human recombinant CYP1B1
Cytochrome P450 1B1 [2] = molecular target: T2, Cytochrome P450 1B1; assay: Inhibition of human recombinant CYP1B1 using 7-ethoxyresorufin as substrate after 30 mins in presence of NADPH by EROD assay
Cytochrome P450 1A1 = molecular target: T4, Cytochrome P450 1A1 (Homo sapiens, UniProt P04798); assay: Inhibition of human recombinant CYP1A1 using 7-ethoxyresorufin as substrate after 15 mins in presence of NADPH by EROD assay; type: ADME
T4 sequence (P04798 whole entry): T3 sequence (P04798 whole entry)

Cytochrome P450 1B1 [3] = molecular target: T2, Cytochrome P450 1B1; assay: Binding affinity to human C-terminal 4His-tagged CYP1B1 expressed in Escherichia coli DH5alpha assessed as spectral dissociation constant by spectrophotometric analysis; details: read-out: Ks

Row | Structure (SMILES) | activity at 0.5 h, 1 µM (CYP1A2) [%] | activity at 0.5 h, 1 µM (Cytochrome P450 1B1 [1]) [%] | activity at 0.25 h, 1 µM (CYP1A1) [%] | Ratio IC50 (Homo sapiens) | IC50 (Cytochrome P450 1B1 [2]) [µM] | IC50 (Cytochrome P450 1A1) [µM] | Kd (Cytochrome P450 1B1 [3]) [µM]
1 | CS(=O)(=O)O[C@H]1CCC[C@@H](c2cc(=O)c3ccc4ccccc4c3o2)C1 (relative stereo) | 79.1 | 80.5 | 38.6 |  |  |  | 
2 | O=c1cc(-c2ccc(S)cc2)oc2c1ccc1ccccc12 | 106 | 54.3 | 71.3 |  |  |  | 
3 | Nc1ccc(-c2cc(=O)c3ccc4ccccc4c3o2)cc1 | -16.3 | -1.2 | 2.1 |  |  |  | 
4 | CC(C)C1CCC(c2cc(=O)c3ccc4ccccc4c3o2)CC1 (mixture of isomers) |  | 27.9 | 48.3 |  |  |  | 124
5 | CS(=O)(=O)O[C@@H]1CCC[C@@H](c2cc(=O)c3ccc4ccccc4c3o2)C1 (relative stereo) | 69.1 | 59.9 | 66.5 |  |  |  | 
6 | O=c1cc(C2CCCC2)oc2c1ccc1ccccc12 | 34.5 | 55.3 | 28 |  |  |  | 
7 | CS(=O)(=O)OCC1CCC(c2cc(=O)c3ccc4ccccc4c3o2)CC1 (racemic) | 96.4 | 50.1 | 78.1 |  |  |  | 
8 | O=c1cc([C@H]2C[C@@H]3C=C[C@H]2C3)oc2c1ccc1ccccc12 | 34 | 83 | 61 |  |  |  | 
9 | O=c1cc(-c2cccc(O)c2)oc2c1ccc1ccccc12 | 37.2 | 1.6 | 8.2 |  |  |  | 
10 | NC1CCCC(c2cc(=O)c3ccc4ccccc4c3o2)C1 (mixture of isomers) | 44.5 | 64.7 | 80.9 |  |  |  | 2.9
11 | CN(C)C(=S)Oc1ccc(-c2cc(=O)c3ccc4ccccc4c3o2)cc1 | 96.9 | 15.1 | 17.6 |  |  |  | 
12 | O=c1cc(C23CC4CC(CC(C4)C2)C3)oc2c1ccc1ccccc12 | 77.8 | 89 | 53.9 |  |  |  | 
13 | N[C@H]1CC[C@@H](c2cc(=O)c3ccc4ccccc4c3o2)CC1 | 74.5 | 81.6 | 73.7 |  |  |  | 
14 | O=c1cc([C@H]2C[C@H]3C=C[C@@H]2C3)oc2c1ccc1ccccc12 | 0 | 74 | 43 |  |  |  | 
15 | C#C[C@H]1CC[C@@H](c2cc(=O)c3ccc4ccccc4c3o2)CC1 | 21 | 0.9 | 11.3 |  |  |  | 7.3
16 | CN(C)C(=S)Oc1cccc(-c2cc(=O)c3ccc4ccccc4c3o2)c1 | 75.4 | 2.5 | 3.1 |  |  |  | 
17 | c1c[nH]cn1 [IMIDAZOLE] |  |  |  |  |  |  | 1260
18 | CN(C)C(=O)Sc1ccc(-c2cc(=O)c3ccc4ccccc4c3o2)cc1 | 91.9 | 12.3 | 10.3 |  |  |  | 
19 | [N-]=[N+]=NC1CCCC(c2cc(=O)c3ccc4ccccc4c3o2)C1 (mixture of isomers) | 42.5 | -4 | 36.1 |  | 0.0903 |  | 
20 | O=c1cc([C@H]2CC[C@H](O)CC2)oc2c1ccc1ccccc12 | 76.2 | 51.3 | 72.7 |  |  |  | 62.7
21 | O=c1cc(C2=CCCCC2)oc2c1ccc1ccccc12 | 21.2 | -12.9 | 3.2 |  |  |  | 1.1
22 | CS(=O)(=O)O[C@H]1CC[C@@H](c2cc(=O)c3ccc4ccccc4c3o2)CC1 | 57.7 | 51.5 | 66.1 |  |  |  | 
23 | CS(=O)(=O)O[C@H]1CC[C@H](c2cc(=O)c3ccc4ccccc4c3o2)CC1 | 80.3 | 72.5 | 69.9 |  |  |  | 
24 | CC1CCC(c2cc(=O)c3ccc4ccccc4c3o2)CC1 (mixture of isomers) | 63 | 23.9 | 50.2 |  |  |  | 5.7
25 | O=c1cc([C@@H]2CCC[C@H](O)C2)oc2c1ccc1ccccc12 (relative stereo) | 68.2 | 79.4 | 71.3 |  |  |  | 
26 | N[C@H]1CC[C@H](c2cc(=O)c3ccc4ccccc4c3o2)CC1 | 95.4 | 89.5 | 84.2 |  |  |  | 

Now from value to molecule:

Row | activity at 0.5 h, 1 µM (CYP1A2) [%] | activity at 0.5 h, 1 µM (Cytochrome P450 1B1 [1]) [%] | activity at 0.25 h, 1 µM (CYP1A1) [%] | Ratio IC50 (Homo sapiens) | IC50 (Cytochrome P450 1B1 [2]) [µM] | IC50 (Cytochrome P450 1A1) [µM] | Kd (Cytochrome P450 1B1 [3]) [µM] | Structure (SMILES)
27 |  | -2.5 | 0 | 2.02 | 0.0661 | 0.134 | 8.1 | O=c1cc(C2CCCC(S)C2)oc2c1ccc1ccccc12 (mixture of isomers)
28 | 15.9 | -0.5 | 4 |  |  |  |  | COc1ccc(-c2cc(=O)c3ccc4ccccc4c3o2)cc1
29 | 73.9 | 72.9 | 78 |  |  |  |  | O=c1cc([C@@H]2CCC[C@@H](O)C2)oc2c1ccc1ccccc12 (relative stereo)
30 | 8.8 | 15 | 0.5 |  |  |  | 264 | C#C[C@H]1CC[C@H](c2cc(=O)c3ccc4ccccc4c3o2)CC1
31 | 92.7 | 56.9 | 85.9 |  |  |  |  | O=c1cc(C2CCC(CO)CC2)oc2c1ccc1ccccc12 (mixture of isomers)
32 | 77.3 | 90.4 | 87.3 |  |  |  | > 1220 | O=c1cc([C@H]2CC[C@@H](O)CC2)oc2c1ccc1ccccc12
33 |  | 0.5 | 3.9 | 1.97 | 0.0388 | 0.0762 | 9.4 | O=c1cc([C@H]2CC[C@@H](S)CC2)oc2c1ccc1ccccc12
34 | 56.2 | 9.8 | 18.7 |  |  |  |  | O=c1cc(-c2cccc(S)c2)oc2c1ccc1ccccc12
35 | -3.5 | 0.2 | 7.6 |  |  |  |  | Nc1cccc(-c2cc(=O)c3ccc4ccccc4c3o2)c1
36 | 68.7 | 2.4 | 3.8 |  |  |  |  | CN(C)C(=O)Sc1cccc(-c2cc(=O)c3ccc4ccccc4c3o2)c1
37 | 0.5 | 4.4 | 31.7 |  |  |  |  | CC(=O)SC1CCCC(c2cc(=O)c3ccc4ccccc4c3o2)C1 (mixture of isomers)
38 | 6.1 | 1.9 | 8.7 |  |  |  |  | COc1cccc(-c2cc(=O)c3ccc4ccccc4c3o2)c1
39 | 36.9 | 6.5 | 38.1 |  |  |  | 3.1 | O=c1cc(C2CC=CCC2)oc2c1ccc1ccccc12 (stereo not given)

Source: ChEMBL document CHEMBL4308906, “Design and synthesis of selective CYP1B1 inhibitor via dearomatization of α-naphthoflavone” (Bioorg Med Chem, 2019)
